Reference: ChEMBL document CHEMBL2440116, “Structure-activity relationships of 2-aminothiazoles effective against Mycobacterium tuberculosis” (Bioorg Med Chem, 2013)

System: Mycobacterium tuberculosis
Assay: Induction of resistant in Mycobacterium tuberculosis H37Rv in Middlebrook 7H9 broth with glucose at 10 times MIC after 4 to 5 weeks relative to control
Format: functional

O=C(Nc1nc(-c2ccccn2)cs1)c1cccc(Br)c1
fold change (FC): 2
